Experimental data as given in patent US5547939A, “Broad spectrum antimicrobial compounds and methods of use” (priority 1994, dated 1996).

Assays:
[1] = five attempts to raise antibodies
[2] = system: Staphylococcus aureus 502A; assay: Dose response bactericidal assay (CFU reduction), S. aureus; assay type: cell-based; details: 10 ug/ml, 2 hr incubation, 2×10^6 CFU, 10 mM sodium phosphate pH 7.4, 37° C.
Protocol: (§1) The time course and dose-dependence of the antimicrobial activity of an indolicidin analog can be determined by incubating a microorganism with the analog and determining the viability after various times of incubation or after treatment with various concentrations of the analog. Assays were performed in 10 mM sodium phosphate buffer, pH 7.4, at 37° C., as described by Selsted et al. (Infect. Immun. 45:150-154 (1985), which is incorporated herein by reference).
(§2) The dose response of a gram negative bacterial strain, Escherichia coli ML35, and a gram positive bacterial strain, Staphylococcus aureus 502A, to indolicidin was determined by incubating 2×10^6 colony forming units (CFU) of log phase bacteria with 0-25 ug/ml of indolicidin for two hours. Following incubation, the cultures were serially diluted and plated on nutrient agar. […] E. coli was more susceptible than S. aureus, as>95% of the input cells were killed after 2 hr incubation with 2.5 ug/ml indolicidin. The indolicidin diluent, 0.01% acetic acid, had no effect on either bacterial strain.

Escherichia coli ML35 [3] = assay: Dose response bactericidal assay (CFU reduction), E. coli; assay type: cell-based; details: 2 hr incubation
Protocol: as §1, §2

Escherichia coli ML35 [4] = assay: Agar diffusion assay, E. coli; assay type: cell-based; details: E. coli ML35, FIG. 4
Protocol: (§3) The broad spectrum antimicrobial activity of indolicidin and indolicidin analogs also was determined using a gram negative bacterial strain, Escherichia coli ML35, a gram positive bacterial strain, Staphylococcus aureus 502A, and a fungus, Cryptococcus neoformans, in an agar diffusion assay, essentially as described by Hultmark et al., EMBO J. 2:571-576 (1983) as modified by Lehrer et al., J. Immunol. Meth. 137:167-173. Briefly, nutrient-containing agar (or agarose) plates were seeded with a selected target microorganism and 5-10 μl of peptide was placed into a well formed in the solid medium or onto a disc placed on the surface of the medium. Following an appropriate incubation interval, microbial growth inhibition was visualized and quantitated by measuring the clear zone around each well or disc (see, also, Selsted, 1993).

E. coli = assay: Microbicidal kinetics of indolicidin; assay type: cell-based, Escherichia coli; details: 25 μg/ml
Protocol: as §1
The kinetics of indolicidin antimicrobial activity was evaluated by incubating 2×10^6 E. coli with 25 ug/ml of indolicidin for 1-40 min. Following incubation for the appropriate time, an aliquot of the culture was removed and diluted and plated as described above.

erythrocyte suspension = assay: Hemolytic assay (erythrocyte lysis assay); assay type: cell-based; details: for % Hemolysis: 30 μg peptide, 18 hr at 37° C., 100% lysis = 1% NP40
Protocol: The hemolytic activity of each peptide was examined using an erythrocyte lysis assay. An 8% (vol:vol) erythrocyte suspension in normal saline or in 80% mouse serum was incubated with 30 μg peptide. After 18 hr incubation at 37° C. intact erythrocytes were removed by centrifugation and the A550 of the supernatant was determined as a measure of hemolysis. As a control (100% lysis), supernatant was collected from an erythrocyte suspension treated with 1% NP40 detergent.

Cryptococcus neoformans = assay: Agar diffusion assay, C. neoformans; assay type: cell-based; details: FIG. 5
Protocol: as §3

[5] = system: Staphylococcus aureus 502A; assay: Agar diffusion assay, S. aureus; assay type: cell-based; details: S. aureus 502a, FIG. 6
Protocol: as §3

[6] = saline, 8% erythrocyte suspension in normal saline
[7] = serum, 8% erythrocyte suspension in 80% mouse serum

CC[C@H](C)[C@H](N)C(=O)N[C@@H](CC(C)C)C(=O)N1CCC[C@H]1C(=O)N[C@@H](Cc1c[nH]c2ccccc12)C(=O)N[C@@H](CCCCN)C(=O)N[C@@H](Cc1c[nH]c2ccccc12)C(=O)N1CCC[C@H]1C(=O)N[C@@H](Cc1c[nH]c2ccccc12)C(=O)N[C@@H](Cc1c[nH]c2ccccc12)C(=O)N1CCC[C@H]1C(=O)N[C@@H](Cc1c[nH]c2ccccc12)C(=O)N[C@@H](CCCNC(=N)N)C(=O)N[C@@H](CCCNC(=N)N)C(N)=O [Indol-R12 R13 --NH2, H2 N--I--L--P--W--K--W--P--W--W--P--W--R--R--CONH2]
immunogenicity [1]: extremely low immunogenicity
reduction of viability (CFU) [2]: reduced by at least four orders of magnitude
input cells killed (Escherichia coli ML35 [3]; 2.5 ug/ml): > 95%
reduction of viability (CFU) (Escherichia coli ML35 [3]; 10 ug/ml, 2×10^6 CFU, 10 mM sodium phosphate pH 7.4, 37° C.): reduced by at least four orders of magnitude
antimicrobial activity (clear zone) compared with indolicidin (Escherichia coli ML35 [4]): greatest antimicrobial activity
state of the culture (E. coli; after 20 min): essentially was sterilized
reduction of number of E. coli CFU (E. coli; within 5 min): three orders of magnitude
% Hemolysis (erythrocyte suspension; [6]): 78.5%
% Hemolysis (erythrocyte suspension; saline, 8% erythrocyte suspension in normal saline, listed as indolicidin): greatest hemolytic activity
% Hemolysis (erythrocyte suspension; [7]): 2.3%
antimicrobial activity (clear zone) compared with indolicidin (Cryptococcus neoformans): greatest antimicrobial activity
antimicrobial activity (clear zone) compared with indolicidin [5]: greatest antimicrobial activity

CC[C@H](C)[C@H](N)C(=O)N[C@@H](CC(C)C)C(=O)N1CCC[C@H]1C(=O)N[C@@H](Cc1c[nH]c2ccccc12)C(=O)N[C@@H](CCCCN)C(=O)N[C@@H](Cc1c[nH]c2ccccc12)C(=O)N1CCC[C@H]1C(=O)N[C@@H](Cc1c[nH]c2ccccc12)C(=O)N[C@@H](Cc1c[nH]c2ccccc12)C(=O)N1CCC[C@H]1C(=O)N[C@@H](Cc1c[nH]c2ccccc12)C(=O)N[C@@H](CCCNC(=N)N)C(=O)N[C@@H](CCCNC(=N)N)C(=O)O [Indol-R12 R13 --OH, H2 N--I--L--P--W--K--W--P--W--W--P--W--R--R--OH]
% Hemolysis (erythrocyte suspension; [6]): 47.9%
% Hemolysis (erythrocyte suspension; [7]): 3.0%

H2 N--I--L--P--W--K--W--P--W--W--P--W--K--CONH2 (H-ILPWKWPWWPWK-NH2) [Indol-K12 --NH2, indolicidin analog having a deletion of R-13 and a substitution of K-12 for R-12]
antimicrobial selectivity (antimicrobial activity relative to hemolytic activity) compared with indolicidin (erythrocyte suspension; FIGS. 4-6 and Table 2): greater antimicrobial selectivity than indolicidin

H2 N--I--L--P--W--K--W--P--W--W--P--W--R--N--CONH2 [Indol-R12 W13 --NH2]
antimicrobial activity (clear zone) compared with indolicidin (Escherichia coli ML35 [4]): markedly less potent than indolicidin
antimicrobial activity (clear zone) compared with indolicidin (Cryptococcus neoformans): markedly less potent than indolicidin
antimicrobial activity (clear zone) compared with indolicidin [5]: markedly less potent than indolicidin

H2 N--I--L--P--W--K--W--P--W--W--P--W--R--OH (H-ILPWKWPWWPWR-OH) [Indol-R12 --OH, indolicidin analog]
antimicrobial activity (clear zone) compared with indolicidin (Escherichia coli ML35 [4]): markedly less potent than indolicidin
antimicrobial activity (clear zone) compared with indolicidin (Cryptococcus neoformans): markedly less potent than indolicidin
antimicrobial activity (clear zone) compared with indolicidin [5]: markedly less potent than indolicidin
